Data on 12 molecules can be found in ChEMBL document CHEMBL1201862, “PubChem BioAssay data set” (2004).

Test systems include NCI-H226; KM-20L2; HCT-116; U-251; HCC 2998; UO-31; M19-MEL; CAKI-1; ACHN; IGROV-1; Hs-578T; PC-3; A549; MCF7; SK-OV-3; SNB-75; EKVX; NCI-H522; RPMI-8226; SF-268.
Test in all cases: inhibition of tumour cell growth, NCI panel, 48 h

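Where inhibition never reached the appropriate level, the endpoint shown equals the highest concentration tested. Otherwise, values were interpolated linearly from a five-concentration, 48-hour dose response in 96-well plates. Abbreviation: GI50, concentration required for 50% inhibition of growth.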 The source made the active and inactive calls. Rule as the data show it: active = GI50 up to about 1.1 µM and inactive = higher.

As for `N/C(S)=N/N=C/c1ncccc1O`, the GI50 with NCI-H226 is 2.95 µM (inactive); in the test with KM-20L2, 1.39 µM (inactive); with HCT-116, 1.76 µM (inactive); in the test on U-251 it was 1.73 µM (inactive); with HCC 2998, 9.08 µM (inactive); in the test on UO-31 it was 0.701 µM (active). Besides, the GI50 is 1.91 µM (inactive) in the test with M19-MEL; 0.927 µM (active) in the test with CAKI-1; 0.766 µM (active) with ACHN; 1.55 µM (inactive) in the test on IGROV-1; 30.8 µM (inactive) in the test on Hs-578T; 2.97 µM (inactive) in the test with PC-3. Moreover, the GI50 in the test with A549 was 2.32 µM (inactive); in the test with MCF7, 0.723 µM (active); with SK-OV-3, 4.21 µM (inactive); in the test on SNB-75 it was 1.94 µM (inactive); in the test on EKVX, 2.35 µM (inactive).
Turning to `O=C(CC(=O)Nc1ccccc1O)Nc1ccccc1O`, the GI50 is 63.1 µM (inactive) in the test on NCI-H226; 7.48 µM (inactive) with NCI-H522; 22.9 µM (inactive) in the test with KM-20L2; 13.2 µM (inactive) in the test on HCT-116; 23.9 µM (inactive) in the test on U-251; 24.7 µM (inactive) in the test with HCC 2998. Moreover, the GI50 with UO-31 was 12.1 µM (inactive); in the test on M19-MEL, 15 µM (inactive); in the test with RPMI-8226 it was 5.13 µM (inactive); in the test with CAKI-1, 68.1 µM (inactive); with SF-268, 26.9 µM (inactive); in the test with ACHN, 9.86 µM (inactive). For the same molecule, the GI50 in the test on IGROV-1 was 37.4 µM (inactive); with A549 it was 29.9 µM (inactive); in the test on SK-OV-3, > 100 µM (inactive); in the test on SNB-75, 18.6 µM (inactive); in the test on EKVX, > 100 µM (inactive).
Regarding `CC(=O)c1ccc(NC(=O)/C(Cc2ccccn2)=N/NC(=O)C[N+](C)(C)C)cc1`, the GI50 in the test on NCI-H226, in the test on NCI-H522, with KM-20L2, with HCT-116, in the test on U-251 and in the test on HCC 2998 was > 100 µM (inactive) each time. The GI50 in the test on UO-31, with M19-MEL, in the test on RPMI-8226, in the test on CAKI-1, in the test on SF-268 and with ACHN was > 100 µM (inactive) in each case. For the same molecule, the GI50 in the test on IGROV-1, in the test on A549, in the test with SK-OV-3, in the test with SNB-75 and in the test with EKVX was > 100 µM (inactive) throughout.
With `O=C(Cc1nc2ccccc2s1)Nc1cccc(C(F)(F)F)c1`, the GI50 with NCI-H226 is 21.8 µM (inactive); in the test with NCI-H522 it was 14.1 µM (inactive); in the test with KM-20L2, 20.4 µM (inactive); with HCC 2998, 15.6 µM (inactive); in the test on UO-31, 14.5 µM (inactive); in the test on M19-MEL, 13 µM (inactive). Also, the GI50 with RPMI-8226 was 7.5 µM (inactive); in the test on CAKI-1, 16.7 µM (inactive); with SF-268 it was 14.8 µM (inactive); in the test with ACHN, 13.6 µM (inactive); with IGROV-1, 13 µM (inactive); in the test with A549, 21 µM (inactive). Besides, the GI50 in the test on SK-OV-3 is 29.5 µM (inactive); with SNB-75, 13.7 µM (inactive); with EKVX it was 22.2 µM (inactive).
As to `NC(=O)C#CC#CC#CCO`, the GI50 was 11.6 µM (inactive) in the test on NCI-H226; 0.15 µM (active) in the test with NCI-H522; 3.89 µM (inactive) with KM-20L2; 1.28 µM (inactive) in the test on HCT-116; 2 µM (inactive) in the test with U-251; 1.7 µM (inactive) in the test on HCC 2998. For the same molecule, the GI50 is 1.95 µM (inactive) in the test on UO-31; 1.81 µM (inactive) in the test with M19-MEL; 2.05 µM (inactive) in the test with RPMI-8226; 1.92 µM (inactive) with CAKI-1; 2.21 µM (inactive) in the test on SF-268; 1.34 µM (inactive) in the test on ACHN. Moreover, the GI50 with IGROV-1 was 2.72 µM (inactive); with A549, 4.39 µM (inactive); with SK-OV-3, 12.8 µM (inactive); in the test with SNB-75, 1.82 µM (inactive); in the test with EKVX, 1.68 µM (inactive).
In the case of `CC(C)OP(=O)(OC(C)C)/C(N)=N/Nc1ccc([N+](=O)[O-])cc1`, the GI50 in the test on NCI-H226 is 53 µM (inactive); in the test on NCI-H522, 68.7 µM (inactive); in the test with KM-20L2, > 100 µM (inactive); with HCT-116 it was 86.3 µM (inactive); with U-251, > 100 µM (inactive); with HCC 2998, > 100 µM (inactive). For the same molecule, the GI50 was 61.8 µM (inactive) in the test with UO-31; > 100 µM (inactive) in the test with M19-MEL; > 100 µM (inactive) in the test with RPMI-8226; > 100 µM (inactive) with CAKI-1; > 100 µM (inactive) with SF-268; 69.8 µM (inactive) with ACHN. Further, the GI50 in the test with A549 was 76.2 µM (inactive); in the test on SNB-75, 81.7 µM (inactive); in the test on EKVX it was 25.4 µM (inactive).
Turning to `CC[n+]1c(/C=C/c2ccc(N(CCCl)CCCl)cc2)ccc2cc(NC(=O)/C=C/c3ccccc3)ccc21`, the GI50 in the test with NCI-H226 was 0.456 µM (active); in the test with NCI-H522, 0.218 µM (active); with KM-20L2 it was 0.483 µM (active); with HCT-116 it was 0.317 µM (active); in the test with U-251 it was 0.132 µM (active); in the test on HCC 2998, 0.39 µM (active). Further, the GI50 is 16.6 µM (inactive) in the test on UO-31; 0.439 µM (active) in the test with M19-MEL; 0.218 µM (active) with RPMI-8226; 2.13 µM (inactive) in the test on CAKI-1; 0.393 µM (active) in the test on SF-268; 0.807 µM (active) in the test with ACHN. The GI50 with IGROV-1 is 0.31 µM (active); in the test on Hs-578T, 0.0912 µM (active); with PC-3, 0.402 µM (active); in the test on A549, 0.279 µM (active); in the test with MCF7, 0.139 µM (active); with SK-OV-3, 0.578 µM (active). Moreover, the GI50 in the test on SNB-75 was 0.131 µM (active); in the test on EKVX, 0.927 µM (active).
Turning to `CCCCCCCCCC1CC(=O)OC2=C1C(=O)CCC2` (stereo not drawn), the GI50 in the test on NCI-H226, in the test with NCI-H522, in the test on KM-20L2, in the test with HCT-116, in the test with U-251 and in the test with HCC 2998 was > 100 µM (inactive) throughout. Also, the GI50 in the test on UO-31, with M19-MEL, with RPMI-8226, in the test on CAKI-1, in the test on SF-268 and in the test on ACHN was > 100 µM (inactive) throughout. Moreover, the GI50 in the test on IGROV-1, with A549, in the test on SK-OV-3, in the test with SNB-75 and with EKVX was > 100 µM (inactive) in each case.
Consider `Cc1nn(C)c(=O)c2nn(-c3ccccc3)c(C)c12`, for which the GI50 with NCI-H226, in the test with NCI-H522, in the test on KM-20L2, in the test with HCT-116, with U-251 and in the test on HCC 2998 was > 100 µM (inactive) each time. Besides, the GI50 in the test on UO-31, with M19-MEL, with RPMI-8226, in the test on CAKI-1, with SF-268 and with ACHN was > 100 µM (inactive) each time. Further, the GI50 in the test with IGROV-1, in the test with A549, in the test with SK-OV-3, with SNB-75 and in the test with EKVX was > 100 µM (inactive) in each case.
As to `Clc1ccc(Cc2nc3ccccc3s2)c(Cl)c1`, the GI50 is 20.4 µM (inactive) with NCI-H226; 15.7 µM (inactive) with NCI-H522; 25.6 µM (inactive) in the test with KM-20L2; 18.6 µM (inactive) in the test with HCC 2998; 16.4 µM (inactive) in the test on UO-31; 15.7 µM (inactive) in the test on M19-MEL. In addition, the GI50 in the test with RPMI-8226 was 17.7 µM (inactive); in the test on CAKI-1 it was 17.4 µM (inactive); with SF-268, 15.7 µM (inactive); in the test on ACHN it was 17.5 µM (inactive); in the test on IGROV-1, 14.8 µM (inactive); with A549, 19.7 µM (inactive). The results for the GI50 with SK-OV-3, in the test with SNB-75 and in the test on EKVX were 28.2 µM (inactive), 14.7 µM (inactive) and 23.6 µM (inactive), respectively.
Consider `O=C(c1ccccc1)c1ccc2cccc(O)c2n1`, for which the GI50 was 38.5 µM (inactive) in the test with NCI-H226; 8.38 µM (inactive) with NCI-H522; 35.6 µM (inactive) in the test on KM-20L2; 6.14 µM (inactive) in the test with HCT-116; 18.5 µM (inactive) with U-251; 40.1 µM (inactive) with HCC 2998. The GI50 in the test on UO-31 was 34.4 µM (inactive); in the test on M19-MEL it was 28.8 µM (inactive); in the test on RPMI-8226 it was 10.6 µM (inactive); in the test with CAKI-1, 76.4 µM (inactive); in the test with SF-268 it was 27.5 µM (inactive); with ACHN it was 37.5 µM (inactive). For the same molecule, the GI50 in the test on IGROV-1 was 93.1 µM (inactive); with A549 it was 33 µM (inactive); in the test on SNB-75, 30.5 µM (inactive); with EKVX, 24.4 µM (inactive).
Turning to `O=[N+]([O-])c1ccc(C2=Nc3ccccc3[S+]([O-])C(c3ccccc3)C2)cc1` (stereo not drawn), the GI50 with NCI-H226 was 16.1 µM (inactive); in the test on NCI-H522, 16.7 µM (inactive); with KM-20L2, 23.7 µM (inactive); with HCC 2998, 18.6 µM (inactive); in the test with UO-31, 16.7 µM (inactive); in the test with M19-MEL, 14.6 µM (inactive). Besides, the GI50 in the test with RPMI-8226 was 5.56 µM (inactive); in the test with CAKI-1, 18.8 µM (inactive); with SF-268 it was 27.9 µM (inactive); in the test with ACHN, 21.4 µM (inactive); in the test on IGROV-1 it was 15.3 µM (inactive); with A549, 27.9 µM (inactive). In addition, the GI50 in the test on SK-OV-3 is 31.9 µM (inactive); with SNB-75, 19 µM (inactive); in the test on EKVX, 22.4 µM (inactive).
